Test results taken from ChEMBL document CHEMBL5338791, “Discovery of Novel 1,3-Diphenylpyrazine Derivatives as Potent S-Phase Kinase-Associated Protein 2 (Skp2) Inhibitors for the Treatment of Cancer” (J Med Chem, 2023).
In brackets after ≈: the same amount, converted by molar mass. Activity calls are given as the source filed them. The calls are words filed in the database; no cut-off is given here.

Tests used:
NCI-H1299 = test: Antitumor activity against human NCI-H1299 cells assessed as cell growth inhibition incubated for 72 hrs by MTT assay; format: functional, cell-based; settings: NCI-H1299, 72 h
MCF7 = test: Antitumor activity against human MCF7 cells assessed as cell growth inhibition incubated for 72 hrs by MTT assay; format: functional, cell-based; settings: MCF7, 72 h
PC-3 [1] = test: Antitumor activity against human PC-3 cells assessed as cell growth inhibition incubated for 72 hrs by MTT assay; format: functional, cell-based; settings: PC-3, 72 h
[2] = Solubility in cell culture medium by HPLC analysis; format: physicochemical
NCI-N87 = test: Antitumor activity against human NCI-N87 cells with low Skp2 expression assessed as cell growth inhibition incubated for 72 hrs by MTT assay; format: functional, cell-based; settings: NCI-N87, 72 h
[3] = biological target: T1, S-phase kinase-associated protein 2 (Homo sapiens, UniProt Q13309); test: Inhibition of Skp2 in human PC-3 cells treated with shRNA 5'-GGACCTATCGAACTCAGTTAT-3' incubated upto 48 hrs by Western blot analysis (reference value: 4.8 +/- 0.5 microM); format: cell-based
T1 sequence (Q13309 whole entry): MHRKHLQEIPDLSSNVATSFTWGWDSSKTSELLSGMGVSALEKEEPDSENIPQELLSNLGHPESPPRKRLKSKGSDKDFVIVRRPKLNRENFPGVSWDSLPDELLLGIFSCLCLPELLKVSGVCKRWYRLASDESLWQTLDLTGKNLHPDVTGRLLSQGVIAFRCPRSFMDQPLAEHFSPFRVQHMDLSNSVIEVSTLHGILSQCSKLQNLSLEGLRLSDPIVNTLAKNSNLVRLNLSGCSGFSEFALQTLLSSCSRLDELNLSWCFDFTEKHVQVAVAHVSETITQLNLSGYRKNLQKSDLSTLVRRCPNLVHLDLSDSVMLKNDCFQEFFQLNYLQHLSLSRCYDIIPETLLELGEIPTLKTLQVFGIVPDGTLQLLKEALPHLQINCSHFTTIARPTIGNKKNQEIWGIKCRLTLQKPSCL

[4] = biological target: T1, S-phase kinase-associated protein 2; test: Inhibition of Skp2 in human MGC-803 cells treated with shRNA 5'-GGACCTATCGAACTCAGTTAT-3' incubated upto 48 hrs by Western blot analysis (reference value: 7 +/- 1.1 microM); format: cell-based
MGC-803 [5] = test: Inhibition of cell migration in human MGC-803 cells incubated for 48 hrs by wound healing assay; format: functional, cell-based; settings: dose <= 2.0 µM
PC-3 [6] = test: Inhibition of cell migration in human PC-3 cells by transwell invasion assay; format: functional, cell-based; settings: dose <= 2.0 µM
MGC-803 [7] = test: Inhibition of cell migration in human MGC-803 cells by transwell invasion assay; format: functional, cell-based; settings: dose <= 2.0 µM
PC-3 [8] = test: Induction of cell cycle arrest in human PC-3 cells assessed as accumulation of cells at G1 phase at 2.5 uM incubated for 48 hrs by flow cytometry (reference value: 57.39 %); format: functional
PC-3 [9] = test: Induction of cell cycle arrest in human PC-3 cells assessed as accumulation of cells at G1 phase at 5 uM incubated for 48 hrs by flow cytometry (reference value: 57.39 %); format: functional
PC-3 [10] = test: Induction of cell cycle arrest in human PC-3 cells assessed as accumulation of cells at G1 phase at 10 uM incubated for 36 hrs by flow cytometry (reference value: 56.81 %); format: functional
MGC-803 [11] = test: Induction of cell cycle arrest in human MGC-803 cells assessed as accumulation of cells at G1 phase at 10 uM incubated for 12 hrs by flow cytometry (reference value: 57.09 %); format: functional
MGC-803 [12] = test: Induction of cell cycle arrest in human MGC-803 cells assessed as accumulation of cells at S phase at 10 uM incubated for 12 hrs by flow cytometry (reference value: 20.41 %); format: functional
MGC-803 [13] = test: Induction of cell cycle arrest in human MGC-803 cells assessed as accumulation of cells at G2 phase at 10 uM incubated for 12 hrs by flow cytometry (reference value: 20.64 %); format: functional
PC-3 [14] = test: Induction of apoptosis in human PC-3 cells assessed as early apoptotic cells at 5 uM incubated for 48 hrs by annexin V-FITC/PI staining based flow cytometry (reference value: 0.85 %); format: functional
PC-3 [15] = test: Induction of apoptosis in human PC-3 cells assessed as late apoptotic cells at 5 uM incubated for 48 hrs by annexin V-FITC/PI staining based flow cytometry (reference value: 0.45 %); format: functional
PC-3 [16] = test: Induction of apoptosis in human PC-3 cells assessed as viable cells at 10 uM incubated for 48 hrs by annexin V-FITC/PI staining based flow cytometry (reference value: 98.6 %); format: functional; settings: read-out: Activity
PC-3 [17] = test: Induction of apoptosis in human PC-3 cells assessed as late apoptotic cells at 10 uM incubated for 48 hrs by annexin V-FITC/PI staining based flow cytometry (reference value: 0.45 %); format: functional
PC-3 [18] = test: Induction of apoptosis in human PC-3 cells assessed as necrotic cells at 10 uM incubated for 48 hrs by annexin V-FITC/PI staining based flow cytometry (reference value: 0.14 %); format: functional
MGC-803 [19] = test: Induction of apoptosis in human MGC-803 cells assessed as viable cells at 10 uM incubated for 48 hrs by annexin V-FITC/PI staining based flow cytometry (reference value: 98 %); format: functional; settings: read-out: Activity
PC-3 [20] = test: Antitumor activity against human PC-3 cells xenografted in NOD-SCID mouse model assessed as tumor growth inhibition at 10 mg/kg, IG administered once every 2 days for 21 days relative to control; format: functional; settings: PC-3, po, 504 h, time 21 day, read-out: TGI
PC-3 [21] = test: Antitumor activity against human PC-3 cells xenografted in NOD-SCID mouse model assessed as p21 accumulation at 10 to 50 mg/kg, IG administered once every 2 days for 21 days by Western blot analysis; format: functional, organism-based; settings: dose 10-50 mg/kg, time 21.0 day
[22] = Toxicity in NOD-SCID mouse model xenografted with human MGC-803 cells assessed as body weight change at 10 to 50 mg/kg, IG administered once every 2 days for 21 days; format: organism-based; settings: in vivo, po, 504 h, dose 10-50 mg/kg, time 21 day
MGC-803 [23] = test: Antitumor activity against human MGC-803 cells xenografted in NOD-SCID mouse model assessed as p27 accumulation at 10 to 50 mg/kg, IG administered once every 2 days for 21 days by Western blot analysis; format: functional, organism-based; settings: dose 10-50 mg/kg, time 21.0 day
MGC-803 [24] = test: Antitumor activity against human MGC-803 cells xenografted in NOD-SCID mouse model assessed as downregulation of ki67 level at 10 to 50 mg/kg, IG administered once every 2 days for 21 days by Western blot analysis; format: functional, organism-based; settings: dose 10-50 mg/kg, time 21.0 day
[25] = Toxicity in NOD-SCID mouse model xenografted with human MGC-803 cells assessed as change in heart histology at 10 to 50 mg/kg, IG administered once every 2 days for 21 days by H and E staining based analysis; format: organism-based; settings: in vivo, po, 504 h, dose 10-50 mg/kg, time 21 day
[26] = Metabolic stability in rat liver microsome assessed as half life at 20 umol/L preincubated for 5 mins followed by NADPH addition measured upto 60 mins by LC-MS/MS analysis; format: ADME; settings: liver microsomes, dose 20 µmol/L, time < 65 min
[27] = Metabolic stability in rat liver S9 fraction assessed as half life at 20 umol/L preincubated for 5 mins followed by NADPH addition measured upto 60 mins by LC-MS/MS analysis; format: ADME, subcellular; settings: dose 20 µmol/L, time < 65 min
[28] = Metabolic stability in mouse liver microsome assessed as half life at 20 umol/L preincubated for 5 mins followed by NADPH addition measured upto 60 mins by LC-MS/MS analysis; format: ADME; settings: liver microsomes, dose 20 µmol/L, time < 65 min
[29] = Cmax in tumor of NOD-SCID mouse model xenografted with human PC-3 cells at 25 mg/kg, IG measured upto 48 hrs by LC-MS/MS analysis; format: ADME, organism-based, Neoplasm; parameters: time < 48 hrs, dose 25 mg/kg, route ig; settings: po
[30] = AUClast in tumor of NOD-SCID mouse model xenografted with human PC-3 cells at 25 mg/kg, IG measured upto 48 hrs by LC-MS/MS analysis; format: ADME, organism-based, Neoplasm; settings: in vivo, po
[31] = Clearance in plasma of NOD-SCID mouse model xenografted with human PC-3 cells at 25 mg/kg, IG measured upto 48 hrs by LC-MS/MS analysis; format: ADME, organism-based; settings: po

## O=C(CCl)NC1CCN(c2cnc(-c3ccccc3)c(-c3ccccc3)n2)CC1
NCI-H1299
  IC50: 7.1 µM
MCF7
  IC50: 4.4 µM
PC-3 [1]
  IC50: 4.8 µM
[2]
  solubility: 3.26 µg/mL (≈ 8.01 µM)
NCI-N87
  IC50: 15.5 µM
[3]
  IC50: 38.5 µM
[4]
  IC50: 39.2 µM
MGC-803 [5]
  inhibition: Dose-Dependent Effect
PC-3 [6]
  inhibition: Dose-Dependent Effect
MGC-803 [7]
  inhibition: Dose-Dependent Effect
PC-3 [8]
  Activity: 48.73%
PC-3 [9]
  Activity: 44.65%
PC-3 [10]
  Activity: 33.46%
MGC-803 [11]
  Activity: 46.55%
MGC-803 [12]
  Activity: 31.88%
MGC-803 [13]
  Activity: 18.63%
PC-3 [14]
  Activity: 0.33%
PC-3 [15]
  Activity: 12%
PC-3 [16]
  viability at 10 µM: 58.6%
PC-3 [17]
  Activity: 27.9%
PC-3 [18]
  Activity: 13.2%
MGC-803 [19]
  viability at 10 µM: 66.9%
PC-3 [20]
  inhibition in vivo at 10 mg/kg: 55.7%
PC-3 [21]
  Activity: Active
[22]
  Activity: Non-Toxic
MGC-803 [23]
  Activity: Active
MGC-803 [24]
  Activity: Active
[25]
  Activity: Non-Toxic
[26]
  half-life at 20 µM: 16.3 min
[27]
  half-life at 20 µM: 15.4 min
[28]
  half-life at 20 µM: 15.3 min
[29]
  Cmax: 182 ng/g
[30]
  AUClast: 2443.9 ng·h/g
[31]
  CL/F: 118 mL/min/kg
